Data on two molecules can be found in ChEMBL document CHEMBL2074162, “P-glycoprotein-mediated transcellular transport of MDR-reversing agents” (FEBS Lett, 1993).

This data set deals with ATP-dependent translocase ABCB1 (Homo sapiens, UniProt P08183). Briefly: TP_TRANSPORTER: transepithelial transport (basal to apical) in MDR1-expressing LLC-PK1 cells. Format: functional, cell-based. The note with it: pig.
ATP-dependent translocase ABCB1, sequence (P08183 whole entry): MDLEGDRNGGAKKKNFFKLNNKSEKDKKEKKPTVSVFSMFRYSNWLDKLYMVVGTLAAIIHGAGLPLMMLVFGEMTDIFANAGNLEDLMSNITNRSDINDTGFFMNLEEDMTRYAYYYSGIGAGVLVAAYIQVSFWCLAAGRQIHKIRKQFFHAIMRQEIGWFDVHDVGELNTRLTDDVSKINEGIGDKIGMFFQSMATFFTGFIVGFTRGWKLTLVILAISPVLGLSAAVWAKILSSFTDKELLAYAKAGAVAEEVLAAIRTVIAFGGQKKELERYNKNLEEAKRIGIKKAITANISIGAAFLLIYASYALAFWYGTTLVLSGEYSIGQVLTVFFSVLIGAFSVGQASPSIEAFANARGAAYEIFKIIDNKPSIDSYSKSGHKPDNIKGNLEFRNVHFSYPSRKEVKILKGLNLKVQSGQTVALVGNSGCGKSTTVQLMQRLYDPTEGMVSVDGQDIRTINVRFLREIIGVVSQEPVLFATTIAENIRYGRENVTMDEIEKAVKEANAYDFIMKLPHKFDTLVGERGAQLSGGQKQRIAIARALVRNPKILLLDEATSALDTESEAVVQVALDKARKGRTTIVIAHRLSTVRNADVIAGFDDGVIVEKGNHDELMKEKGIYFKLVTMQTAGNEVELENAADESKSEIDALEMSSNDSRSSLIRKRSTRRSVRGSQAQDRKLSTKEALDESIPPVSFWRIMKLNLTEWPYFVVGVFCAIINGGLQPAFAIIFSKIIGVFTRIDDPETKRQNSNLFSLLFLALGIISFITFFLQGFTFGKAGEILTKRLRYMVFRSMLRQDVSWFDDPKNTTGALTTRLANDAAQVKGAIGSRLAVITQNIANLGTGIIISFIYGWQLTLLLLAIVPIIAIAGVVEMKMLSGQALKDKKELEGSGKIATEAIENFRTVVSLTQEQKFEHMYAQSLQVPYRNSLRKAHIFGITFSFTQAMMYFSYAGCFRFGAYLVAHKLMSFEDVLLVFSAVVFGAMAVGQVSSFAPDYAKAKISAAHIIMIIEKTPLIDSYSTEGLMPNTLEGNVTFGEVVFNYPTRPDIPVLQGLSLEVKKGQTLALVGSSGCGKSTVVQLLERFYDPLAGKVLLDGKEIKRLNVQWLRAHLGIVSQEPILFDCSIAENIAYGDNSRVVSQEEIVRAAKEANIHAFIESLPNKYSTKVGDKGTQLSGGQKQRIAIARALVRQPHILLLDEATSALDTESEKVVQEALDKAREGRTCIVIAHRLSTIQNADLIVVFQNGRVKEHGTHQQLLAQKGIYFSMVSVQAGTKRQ

Consider `COc1ccc([C@@H]2Sc3ccccc3N(CCN(C)C)C(=O)[C@@H]2OC(C)=O)cc1` [DILTIAZEM], for which the Activity entry is “substrate [+]”.

As to `CCOC(=O)C1=C(C)NC(C)=C(C(=O)OCCNC(=O)c2ccc(N=[N+]=[N-])cc2)C1c1ccccc1C(F)(F)F` (configuration not stated) [AZIDOPINE], the Activity result was “substrate [+]”.
